Data reported in patent publication US20080213404A1, “Hif Modulating Compounds and Methods of Use Thereof” (priority 2005, published 2008).
Structures can show the parent of a compound that is named as a salt. Where two headings read alike, the source gives them in different places.

How the values were obtained:
HIF-1α = experiment: Western blot of HIF-1α in macrophages exposed to GAS; assay type: cell-based, mouse; details: WT macrophages, normalized to β-actin
Description: (§1) FIG. 6 provides graphs showing HIF-1 and vHL regulate NO production. (A) Total RNA from WT, HIF-1−/−, and vHL−/− bone marrow-derived macrophages infected with GAS isolated 3 hours after antibiotic treatment. iNOS mRNA was quantified by RT-PCR. WT, nonstimulated macrophages were arbitrarily set to 1 unit following normalization to ribosomal RNA levels. (B) NO production under GAS stimulation ±1.5 mM AG ([…]; Calbiochem). BM-derived macrophages were cultured for 20 hours, conditioned supernatant collected, and NO […] levels measured by the Griess assay. (C) Mim enhances iNOS expression of WT macrophages stimulated by GAS. Total RNA from WT and HIF-1-null BM-derived macrophages infected with GAS±Mim isolated 3 hours after antibiotic treatment. iNOS mRNA was quantified by RT-PCR. WT, noninfected macrophages were arbitrarily set to 1 unit following normalization to ribosomal RNA levels. Statistical analyses performed by unpaired Student's t test. **P<0.01; ***P<0.001. […]
Peritoneal neutrophils or bone marrow-derived macrophages inoculated with GAS were harvested and washed with PBS, and proteins were extracted with HTAB or RIPA buffers. Protein concentration was calculated using the Bio-Rad assay (Bio-Rad Laboratories). […] Immunoreactive proteins were detected using the ECL chemiluminescent system (Amersham Biosciences).

[1] = tested on: intracellular killing of GAS by macrophages; experiment: Bacterial killing assay (antibiotic protection): intracellular killing of GAS by macrophages; assay type: cell-based, mouse; details: for intracellular killing of GAS by WT macrophages: preincubation 5 hours, L-Mim 800 μM, OH-pyridone 150 μM, desferrioxamine mesylate 100 μM, CoCl2 100 μM
Description: FIG. 2 is a series of graphs showing HIF-1 regulates bactericidal activity of myeloid cells. (A) Intracellular killing of GAS by WT, HIF-1-null, or vHL-null macrophages. BM-derived macrophages were inoculated with GAS at an MOI equal to 2.5 and cultured under normoxic (white bars) or hypoxic (0.1%; black bars) conditions for 1 hour after antibiotic treatment. Statistical analyses were performed using unpaired Student's t test. *P<0.05; **P<0.01. (B) Loss of HIF-1 in macrophages decreases intracellular killing of GAS and of P. aeruginosa. WT (black bars) or HIF-1-null (white bars) BM-derived macrophages were incubated with bacteria for 1 hour before antibiotics were added. Intracellular killing was analyzed by determination of viable CFUs in macrophage lysates at the specified time points after bacterial uptake. Experiments were performed in triplicate. […] Experiment shown is representative of 3 repeated studies. (C) Loss of vHL in BM-derived macrophages increases intracellular killing of GAS and of P. aeruginosa. Experiments were performed in triplicate and are representative of 3 repeated studies. […] (D) Pharmacologic agonists of HIF-1 increase myeloid cell bactericidal activity. Preincubation (5 hours) with desferrioxamine mesylate (DFO), CoCl2, OH-pyridone, or Mim increased the intracellular killing capacity of WT macrophages against GAS. ***P<0.001.
To assess the functional consequences of HIF-1α activation, we used an antibiotic protection assay to calculate intracellular killing of GAS by WT macrophages compared with killing by those derived from the bone marrow of HIF-1α-lysMcre mice (11). Here, targeted deletion of the HIF-1α gene has been created via crosses into a background of cre expression driven by the lysozyme M promoter (lysMcre), allowing specific deletion of the transcription factor in the myeloid lineage (11). […] Macrophage killing of the Gram-negative bacterium P. aeruginosa was likewise impaired upon deletion of HIF-1α (FIG. 2B).
Finally, we treated WT macrophages with a number of known pharmacologic inducers of HIF-1α that each act directly or indirectly to inhibit prolyl hydroxylase targeting of HIF-1α for ubiquitination. These included the iron chelator desferrioxamine, CoCl2, L-Mim, and 3-hydroxy-1,2-dimethyl-4(1H)-pyridone (OH-pyridone) (13). The addition of each of these agents increased intracellular killing of GAS by WT macrophages (FIG. 2D).
Bacterial killing assays. GAS were grown to logarithmic phase in THB to OD600=1×10^8 cfu/ml. Bacteria were added to macrophages at an MOI of 2.5 bacteria/cell and intracellular killing assessed using an antibiotic protection assay (11, 53) or, alternatively, total cell-associated bacteria measured by vigorous washing with PBS×3 to remove nonadherent bacteria. At the end of the assay, total cell lysate was plated on THB agar for enumeration of CFU. […] To assess macrophage viability, the monolayers were washed with PBS and incubated with 0.04% Trypan blue for 10 minutes at 37° C. As specified in the FIG. 2 legend and in Results, macrophages were preincubated with L-Mim (800 μM), OH-pyridone (150 μM), desferrioxamine mesylate (100 μM), or CoCl2 (100 μM) for 5 hours prior to the killing assay; each drug level was known to be sufficient for HIF-1 induction (13). Absence of bacterial inhibition was tested by incubating the drugs at the above concentrations with GAS (˜105) at 37° C. for 1-24 hours. Mouse model of GAS infection.

TNF-α = TNF-α ELISA of conditioned macrophage supernatants after GAS; assay type: cell-based, mouse; details: WT, HIF-1α and vHL-deficient macrophages, 1 hour after antibiotic treatment
Description: FIG. 7 is a series of graphs illustrating HIF-1 and vHL regulate TNF-production. (A) Total RNA from WT, HIF-1−/−, and vHL−/− bone marrow-derived macrophages infected with GAS were isolated 3 hours after antibiotic treatment. TNF-mRNA was quantified by RT-PCR. WT, nonstimulated macrophages were arbitrarily set to 1 unit following normalization to ribosomal RNA levels. (B) inhibition of iNOS decreases TNF-production. BM-derived macrophages were cultured for 1 hour after antibiotic treatment. Conditioned supernatant was harvested and TNF-protein analyzed by ELISA (eBiosciences). Statistical analyses were performed using unpaired Student's t test. ***P<0.001.
We next examined the expression pattern of TNF-α, a cytokine involved in the augmentation of inflammatory responses to microbial infection. Indeed, development of GAS-necrotizing fasciitis has been reported as a complication of anti-TNF-α therapy (37). […] Whereas basal levels of TNF-α protein expression were similar in WT, HIF-1α, and vHL-null macrophages, loss of HIF-1α also strongly depressed the rapid secretion of TNF-α protein in response to GAS (FIG. 7B).

NO production = experiment: Nitrite determination (Griess assay) in macrophage supernatants under GAS stimulation; assay type: cell-based, mouse; details: 1.5 mM AG; macrophages cultured 20 hours
Description: as §1
The concentration of nitrite (NO2-), the stable oxidized derivative of NO, was determined in 100-μl aliquots of cell culture supernatants transferred to 96-well plates. Essentially, 100 μl of Griess reagent (1% sulfanilamide, 0.1% naphthylene diamine dihydrochloride, 2% H3PO4) was added per well, and the absorbances were measured at 540 nm in a microplate reader. […]

[2] = tested on: HIF-1α-dependant transcription (HRE-luciferase reporter); experiment: HRE-luciferase reporter assay in BM-derived macrophages of HRE-luciferase transgenic mice; assay type: cell-based, mouse; details: 18 hours; L-Mim 800 μM, desferrioxamine mesylate 150 μM, CoCl2 150 μM
Description: (C) HRE-luciferase BM-derived macrophages were incubated either with GAS or heat-inactivated GAS at an MOI equal to 5-10 under hypoxia (1%) or with the addition of mimosine (800 μM), desferrioxamine mesylate (150 μM), or CoCl2 (150 μM) for 18 hours.
We measured HIF-1α-dependant transcription in macrophages derived from HRE-luciferase transgenic mice, which contain a luciferase reporter gene driven by 6 consecutive specific HRE sequences.
Macrophages were derived from the marrow of femurs and tibiae of transgenic HRE-luciferase mice as described above. The luciferase reporter gene in these mice is driven by 6 specific HRE sequences. Cells were incubated with GAS or heat-inactivated GAS for 18 hours. […] Cells were then washed out with PBS, and luciferase assay was performed by using the Bright-Glo Luciferase Assay kit (Promega Corp.). Luciferase activities were measured using a luminometer.

Staphylococcus aureus [3] = experiment: Bactericidal capacity of cultured human monocytic cells against S. aureus; assay type: cell-based
iNOS = iNOS mRNA by RT-PCR in BM-derived macrophages infected with GAS; assay type: cell-based, mouse; details: for expression of iNOS mRNA: WT macrophages infected with GAS, RNA isolated 3 hours after antibiotic treatment
Description: (A) Total RNA from WT, HIF-1−/−, and vHL−/− bone marrow-derived macrophages infected with GAS isolated 3 hours after antibiotic treatment. iNOS mRNA was quantified by RT-PCR. WT, nonstimulated macrophages were arbitrarily set to 1 unit following normalization to ribosomal RNA levels. […] Total RNA from WT and HIF-1-null BM-derived macrophages infected with GAS±Mim isolated 3 hours after antibiotic treatment. iNOS mRNA was quantified by RT-PCR. WT, noninfected macrophages were arbitrarily set to 1 unit following normalization to ribosomal RNA levels. Statistical analyses performed by unpaired Student's t test. **P<0.01; ***P<0.001.
First-strand synthesis was obtained from 1 μg of total RNA isolated with Trizol reagent (Molecular Research Center Inc.) by the SuperScript system (Invitrogen Corp.), employing random primers.

[4] = tested on: vincomycin-resistant Enterococcus species; details: freshly isolated human neutrophils
Staphylococcus aureus [5] = experiment: Bactericidal capacity of freshly isolated human neutrophils against S. aureus; assay type: cell-based
Staphylococcus aureus [6] = experiment: Bactericidal capacity of freshly isolated human blood; assay type: cell-based
[7] = tested on: vincomycin-resistant Enterococcus species; details: cultured human monocytic cells

For Cc1ccc(S(=O)(=O)O)cc1.NNC(N)=NO [AG, 1-amino-2-hydroxyguanidine, p-toluenesulfate], the “GAS-induced increase of HIF-1α levels” value (HIF-1α) was “blocked”, the “bactericidal activity of HIF-1α-null macrophages” value ([1]; HIF-1α-null macrophages, presence of iNOS inhibitor) was “did not further suppress” and the “bactericidal activity of WT macrophages” value ([1]; WT macrophages, presence of iNOS inhibitor) was “inhibited”. The “TNF-α protein in conditioned supernatants” value (TNF-α) was “reduced amounts” and the “production of NO in response to GAS” value (NO production) was “significantly inhibited”.

For [Cl][Co][Cl] [CoCl2, cobalt chloride], the “intracellular killing of GAS by WT macrophages” value (from here on “intracellular killing of GAS”) [1] was “increased” and the “increase in luciferase reporter activity” value [2] was 3 fold.

For N[C@@H](Cn1ccc(=O)c(O)c1)C(=O)O [L-Mim, 3-Hydroxy-4-oxo-1(4H)-pyridinealanine], the “bactericidal capacity against Staphylococcus aureus” value (Staphylococcus aureus [3]) was “increase”, the “increased expression of iNOS mRNA” value (iNOS; HIF-1α-null macrophages infected with GAS) was “very low” and the “expression of iNOS mRNA” value (iNOS) was “greatly increased”. The “expression of iNOS mRNA” value (iNOS; listed as Mim) was “enhances”, the “bactericidal capacity against vincomycin-resistant Enterococcus species” value [4] was “increase” and the “intracellular killing of GAS” value [1] was “increased”. For the same molecule, the “bactericidal capacity against Staphylococcus aureus” value (Staphylococcus aureus [5]) was “increase”, the “bactericidal capacity against Staphylococcus aureus” value (Staphylococcus aureus [6]) was “increase” and the “bactericidal capacity against vincomycin-resistant Enterococcus species” value [7] was “increase”.

In the case of Cc1c(O)c(=O)ccn1C [OH-pyridone, 3-hydroxy-1,2-dimethyl-4(1H)-pyridone], the “intracellular killing of GAS” value [1] is reported as “increased”.

CC(=O)N(O)CCCCCNC(=O)CCC(=O)N(O)CCCCCNC(=O)CCC(=O)N(O)CCCCCN [desferrioxamine mesylate] was tested, and the “intracellular killing of GAS” value [1] was “increased” and the “increase in luciferase reporter activity” value [2] was 3 fold.
